The test system of one assay is Aβ1-42 production. Kind of assay: Cellular assay for inhibition of Aβ1-42 production (H4 APP751 SWE clone 8.20). It is filed as cell-based. As to conditions: 19 h, H4 APP751 SWE clone 8.20 cells, 19 h incubation; class symbols; read-out: Activity Rating (Aβ42 cellular IC50). The method, boiled down: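 Inhibition values are IC50s fitted to Viewlux counts after a 19 h compound exposure at 37 °C. Aβ42 was captured by the neoepitope-specific antibody 565 (0.8 ng/well) paired with N-terminal 26D6 (75 ng/well), incubated overnight at 4 °C in pH 7.4 Tris-HCl buffer containing 0.2% BSA.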
Broadly, the IC50 is the point on the concentration scale where inhibition reaches its midpoint. Consider `COc1cc(Nc2nc3c(c(N4CCC(F)(F)CC4)n2)CCC3c2ccc(F)cc2)ccc1-n1cnc(Cl)c1` (centres unmarked) [Example 39B, N-(4-(4-chloro-1H-imidazol-1-yl)-3-methoxyphenyl)-4-(4,4-difluoropiperidin-1-yl)-7-(4-fluorophenyl)-6,7-dihydro-5H-cyclopenta[d]pyrimidin-2-amine], for which the IC50 is 100 to 1000 nM.
As for `COc1cc(Nc2nc3c(c(N4CC(F)(F)C4)n2)CCC3c2ccc(F)cc2)ccc1-n1cnc(Cl)n1` (single isomer, unassigned) [Example 17B, N-(4-(3-chloro-1H-1,2,4-triazol-1-yl)-3-methoxyphenyl)-4-(3,3-difluoroazetidin-1-yl)-7-(4-fluorophenyl)-6,7-dihydro-5H-cyclopenta[d]pyrimidin-2-amine], the IC50 is 10 to 100 nM.
In the case of `CNc1nc(Nc2ccc(-n3cnc(C)n3)c(F)c2)nc2c1CCC2c1ccccc1` (centres unmarked) [Example 2, N2-(3-fluoro-4-(3-methyl-1H-1,2,4-triazol-1-yl)phenyl)-N4-methyl-7-phenyl-6,7-dihydro-5H-cyclopenta[d]pyrimidine-2,4-diamine], the concentration for half-maximal inhibition (IC50) lay in the range of 1.5 to 9.9 nM.
The same measure, in the same setting: as for `COc1cc(Nc2nc(NCCCO)c3c(n2)C(c2ccc(F)cc2)CC3)ccc1-n1cnc(Cl)c1` (racemic) [Example 43, 3-(2-(4-(4-chloro-1H-imidazol-1-yl)-3-methoxyphenylamino)-7-(4-fluorophenyl)-6,7-dihydro-5H-cyclopenta[d]pyrimidin-4-ylamino)propan-1-ol], the figure is 1.5 to 9.9 nM.
Same read-out and setting: the value for `CNc1nc(Nc2ccc(-c3cc(Cl)ncn3)c(OC)c2)nc2c1CCC2c1ccccc1` (centres unmarked) [Example 277, N2-(4-(6-chloropyrimidin-4-yl)-3-methoxyphenyl)-N4-methyl-7-phenyl-6,7-dihydro-5H-cyclopenta[d]pyrimidine-2,4-diamine] was more than 1000 nM; that for `CNc1nc(Nc2ccc(-n3cnc(C)n3)c(OC)c2)nc2c1CC[C@@H]2c1ccccc1Cl` [Example 268B, (R)—N2-(3-methoxy-4-(3-methyl-1H-1,2,4-triazol-1-yl)phenyl)-7-(2-chlorophenyl)-N4-methyl-6,7-dihydro-5H-cyclopenta[d]pyrimidine-2,4-diamine] was 10 to 100 nM.
With `CNc1nc(Nc2ccc(C3(C#N)CC3)cc2)nc2c1CCC2c1ccccc1` (centres unmarked) [Example 247, 1-(4-(4-(methylamino)-7-phenyl-6,7-dihydro-5H-cyclopenta[d]pyrimidin-2-ylamino)phenyl)cyclopropanecarbonitrile], the IC50 fell in the range of 100 to 1000 nM.
The same measure, in the same setting: as for `CCNc1nc(Nc2ccc(-n3cnc(Cl)c3)c(OC)c2)nc2c1CCN(C)C2c1ccc(F)cc1` (centres unmarked) [Example 175, N2-(4-(4-chloro-1H-imidazol-1-yl)-3-methoxyphenyl)-N4-ethyl-8-(4-fluorophenyl)-7-methyl-5,6,7,8-tetrahydropyrido[3,4-d]pyrimidine-2,4-diamine], the figure is 10 to 100 nM.
The same measure, in the same setting: the value for `COc1cc(Nc2nc3c(c(N4CCC4)n2)CCC3c2ccc(OC(F)(F)F)cc2)ccc1-n1cnc(Cl)c1` (racemic) [Example 101, 4-(Azetidin-1-yl)-N-(4-(4-chloro-1H-imidazol-1-yl)-3-methoxyphenyl)-7-(4-(trifluoromethoxy)phenyl)-6,7-dihydro-5H-cyclopenta[d]pyrimidin-2-amine] was 10 to 100 nM.

Still in this assay, the particulars now being: 19 h, H4 APP751 SWE clone 8.20 cells, 19 h incubation; read-out: Activity Rating (Aβ42 cellular IC50), numeric value.
For `CCNc1nc(Nc2ccc(-n3cnc(C)n3)c(F)c2)nc2c1CN(C(=O)C1CC1)CC2c1ccccc1` (centres unmarked) [Example 143B, cyclopropyl(4-(ethylamino)-2-(3-fluoro-4-(3-methyl-1H-1,2,4-triazol-1-yl)phenylamino)-8-phenyl-7,8-dihydropyrido[4,3-d]pyrimidin-6(5H)-yl)methanone], the IC50 was found to be 430 nM.

Still in this assay, the particulars now being: H4 APP751 SWE clone 8.20 cells, 19 h incubation; class symbols; read-out: Activity Rating (Aβ42 cellular IC50).
`CCN(C)c1nc(Nc2ccc(-n3cnc(Cl)c3)c(OC)c2)nc2c1CCN(S(C)(=O)=O)C2c1ccc(F)cc1` (centres unmarked) [Example 172B, N2-(4-(4-chloro-1H-imidazol-1-yl)-3-methoxyphenyl)-N4-ethyl-8-(4-fluorophenyl)-N4-methyl-7-(methylsulfonyl)-5,6,7,8-tetrahydropyrido[3,4-d]pyrimidine-2,4-diamine]: the IC50 fell in the range of 100 to 1000 nM.

The record behind these values is patent US8637525B2, “Compounds for the reduction of beta-amyloid production” (Bristol-Myers Squibb Company, priority 2009, dated 2014).
